In the SangsterLogP compilation:

assay: method code SF-RC, from DOI: 10.1021/acs.jmedchem.5b00440, PMID: 26327138; conditions: pH 7.4

Row | logD | SMILES
1 | 2.85 | CN(C)c1ccc(/C=C/c2cc3ccc(I)cc3s2)cn1
2 | 3.95 | Ic1ccc2nc(/C=C/c3ccccc3)oc2c1
3 | 2.11 | CN(C)c1ccc(/C=C/c2cc3ccc(I)cc3o2)cc1
4 | 3.35 | Ic1ccc2nc(/C=C/c3cccnc3)oc2c1
5 | 2.4 | CN(C)c1ccc(C=Cc2cc3ccc(I)cc3s2)cc1
6 | 2.34 | Ic1ccc2cc(/C=C/c3ccccc3)sc2c1
7 | 3.15 | Ic1ccc2nc(/C=C/c3cccnc3)[nH]c2c1
8 | 2.38 | Ic1ccc2cc(/C=C/c3ccccc3)oc2c1
9 | 3.25 | Ic1ccc2nc(/C=C/c3ccccc3)[nH]c2c1
10 | 2.95 | Ic1ccc2cc(/C=C/c3cccnc3)sc2c1
11 | 3.11 | CN(C)c1ccc(/C=C/c2nc3ccc(I)cc3[nH]2)cn1
12 | 3.15 | CN(C)c1ccc(/C=C/c2nc3ccc(I)cc3s2)cc1
13 | 3.13 | Ic1ccc2cc(/C=C/c3cccnc3)oc2c1
14 | 3.25 | CN(C)c1ccc(/C=C/c2nc3ccc(I)cc3s2)cn1
